# Test results: patent publication US5688824A, “Use of leflunomide to prevent or control xenograft rejection” (priority 1996, dated 1997)
# “Also recorded” adds a separate entry of the source. Read-outs that look alike come from different tables or passages of the source.
# What was measured:
# SLE in MRL/lpr mice = details: cited from earlier work
# cGvH disease or SLE = details: mouse, U.S. Pat. No. 4,965,276; cited from earlier work
# [1] = system: anti-donor specific IgM and IgG; assay: anti-donor specific IgM and IgG titers by flow cytometry, cardiac xenografts; type: in vivo, rat; details: leflunomide alone
# Experimental: Serum samples were obtained from the animals by drawing 0.2 ml of blood from the tail vein at two day intervals, for the first eight days after transplantation, and then at seven day intervals after day 14. Serum samples were stored at -80° C. The anti-donor specific IgM and IgG titers were measured using cervical lymph nodes from hamsters as target cells for flow cytometry. Lymphocytes obtained from the lymph nodes were washed with PBS and suspended at a concentration of 10^7 cells/ml. Aliquots of 50 μl containing ~5×10^5 lymphocytes were incubated with 50 μl of diluted sera (diluted 1:25 in phosphate buffered saline) for 30 minutes at 4° C. and then washed twice in 1 ml of PBS. IgM and IgG antibodies were stained by incubating the washed cells for 30 minutes at 4° C. with 50 μl of PBS containing a mixture of labeled goat antibodies specific for rat IgG and rat IgM (Jackson Immunoresearch Labs, Westgrove, Pa.). After staining, the cells were washed twice, fixed in 1% formalin and analyzed on the BPICS-C flow cytometry (Coulter Company), according to Williams et al., Transplantation, 57:1223-1231 (1994).
# [2] = system: epidermal growth factor (EGF)-dependent cell growth; details: cited from earlier work
# EGF receptor kinase = details: cited from earlier work
# cytotoxic antibody = assay: complement-mediated cytotoxicity assay, cardiac xenografts; type: in vivo, rat; details: leflunomide therapy
# [3] = system: rat adjuvant arthritis models and rat allergic encephalitis model; details: cited from earlier work
# allogeneic kidney graft = details: cited from earlier work
# [4] = system: platelet derived growth factor-receptor (PDGFR) tyrosine kinase; details: cited from earlier work
# [5] = system: rejection of concordant hamster to rat renal xenografts; assay: hamster to rat concordant renal xenograft rejection; type: in vivo, Golden Syrian hamster donor, LEW rat recipient
# Experimental: Like Example 2, this experiment was also designed to determine a dose response curve using leflunomide as monotherapy, CsA as monotherapy, and both used as combination therapy. End points used to assess efficacy were duration of time to rejection, mortality, and histologic differences among the treatment groups.
# Golden Syrian hamsters and LEW rats were maintained as in Example 2, and leflunomide and CsA were administered in the same manner as in Example 2. Renal transplantation was performed using cuffs of aorta and vena cava for vascular anastomosis; the donor ureter bearing a button of bladder was connected to the recipient bladder. Both recipient kidneys were removed at the time of transplantation.
# Leflunomide monotherapy was dosed at 2.5, 5, 10 and 15 mg/kg. CsA monotherapy at 10 mg/kg was given to one group. Two groups were given combination therapy of leflunomide 5 mg/kg with CsA 5 mg/kg, and leflunomide 5 mg/kg with CsA 10 mg/kg. Serum creatinine was measured at 7 days and 21 days. Rejection was defined as death of the animal from uremia with histology consistent with immune-mediated injury.
# At the death of the animal, the kidney graft was removed, fixed in formalin, and stained with hematoxylin and eosin to determine the extent of pathological change. IgG and IgM staining was also done on formalin-fixed tissue, using ABC Technique as for Example 2.
# glomerulonephritis = details: oral 2 mg/kg/day, prophylactic or therapeutic; cited from earlier work
# [6] = system: heterotopic small intestinal transplantation; details: continuous infusion pump, cited from earlier work
# [7] = system: BN heterotopic heart grafts; details: oral 15 mg/kg/day, cited from earlier work
# [8] = system: intimal thickening of BN orthotopic femoral arterial grafts; details: oral 10 mg/kg/day; cited from earlier work
# skin grafts = details: cited from earlier work
# [9] = to open-ring form A771726; cited from earlier work
# [10] = system: intimal thickening in balloon-injured carotids; details: 20 mg/kg daily from day 3 pre-transplant to day 13 post-transplant; cited from earlier work
# IL-2 = details: cited from earlier work
# cardiac allograft = details: cited from earlier work
# [11] = cited from earlier work
# [12] = 2.5 mg/kg or 5 mg/kg leflunomide
# [13] = 10 mg/kg and 15 mg/kg leflunomide
structure (smiles),measurement,setting,value
"Cc1oncc1C(=O)Nc1ccc(C(F)(F)F)cc1 [leflunomide, N-(4-trifluoromethylphenyl)-5-methylisoxazol-4-carboxamide]",ability to inhibit SLE relative to Cyclosporine A,SLE in MRL/lpr mice; MRL/lpr mice,equal or superior to Cyclosporine A (CsA) in ability to inhibit SLE
same,"disease progression, lymphocyte accumulation, T-cell ratio",SLE in MRL/lpr mice; MRL/lpr mice,stops disease progression and prevents the development of glomerulonephritis
same,"disease progression, lymphocyte accumulation, T-cell ratio","SLE in MRL/lpr mice; MRL/lpr mice, listed as Leflunomide","suppresses the intense accumulation of lymphocytes in the lymph nodes and spleen of these mice, restores the T-cell helper/suppressor ratio to normal values, and restores the depressed proliferative response of lymphocytes and macrophages"
same,animals still alive,"SLE in MRL/lpr mice; at the end of 10 weeks, mice with elevated urine protein",90%
same,"glomerulonephritis, anti-dsDNA titer, GvH index, T-lymphocyte proliferative ability",cGvH disease or SLE,"prevented development of glomerulonephritis, reduced anti-dsDNA titer, decreased the GvH index (a measure of relative spleen enlargement), and improved the diminished proliferative ability of T-lymphocytes"
same,inhibition of development of cGvH disease or SLE,cGvH disease or SLE,effective in inhibiting the development of cGvH disease or SLE
same,IgG levels,[1],IgG levels remained at baseline
same,IgM titres,[1],"delayed and slowed the rise of IgM titres, but did not completely suppress IgM rise"
same,inhibition of EGF-dependent cell growth,[2],capable of inhibiting epidermal growth factor (EGF)-dependent cell growth
same,inhibition of EGF receptor kinase,EGF receptor kinase,inhibits the intrinsic EGF receptor kinase
same,cytotoxic antibody titres,cytotoxic antibody,prevented or reversed the cytotoxic antibody titres
same,anti-inflammatory activity and toxicity,"[3]; U.S. Pat. No. 4,351,841",superior anti-inflammatory activity and decreased toxicity
same,inhibition of immunopathological processes,[3]; two rat adjuvant arthritis models and a rat allergic encephalitis model,inhibit immunopathological processes
same,toxicity in dogs,"allogeneic kidney graft; dog, in vivo","limited, however, by toxicity due to the canine's N-acetylation enzyme deficiency"
same,survival,allogeneic kidney graft; leflunomide 8 mg/kg daily,27 ± 1 days
same,survival,allogeneic kidney graft; leflunomide 16 mg/kg daily,21 ± 2 days
same,time to rejection after withdrawal of leflunomide,"allogeneic kidney graft; withdrawn from two dogs after 100 days, combination-treated group",≤ 14 days
same,inhibition of PDGFR tyrosine kinase activity,[4],inhibits the intrinsic EGF receptor kinase as well as other kinases such as platelet derived growth factor-receptor (PDGFR) tyrosine kinase activity
same,effect on survival,[5]; [12],did not significantly increase survival time
same,histopathology,[5]; [12],did not significantly alter histopathology compared to controls
same,mean serum creatinine values vs controls,[5]; [12],slightly reduced
same,effect on survival,[5]; [13],statistically significant improvement in survival
same,histology,[5]; [13],the histology did not show significant rejection
same,Mean Creatinine Day 7,"[5]; Lef 2.5 mg/kg, group 2",3.6
same,Mean Survival ± S.D.,"[5]; Lef 2.5 mg/kg, group 2",8.5 ± 2.1
same,Mean Creatinine Day 7,"[5]; Lef 5.0 mg/kg, group 3",2.7
same,Mean Survival ± S.D.,"[5]; Lef 5.0 mg/kg, group 3",7.0 ± 2.6
same,Mean Creatinine Day 7,"[5]; Lef 10 mg/kg, group 4",1.6
same,Mean Survival ± S.D.,"[5]; Lef 10 mg/kg, group 4",17.0 ± 8.9
same,Mean Creatinine Day 7,"[5]; Lef 15 mg/kg, group 5",1.2
same,Mean Survival ± S.D.,"[5]; Lef 15 mg/kg, group 5",13.2 ± 7.1
same,Graft Survival for Each Subject,"[5]; Lef 15 mg/kg, group 5, listed as Lef","17,24"
same,terminal serum creatinine,"[5]; appropriate dose of leflunomide, most of the animals",less than 2.5
same,effect on glomerulonephritis,glomerulonephritis,"effective in both preventing and curing glomerulonephritis; also recorded: significant decrease in total urinary protein, plasma cholesterol and fibrinogen, as well as decreased deposition of fibrin, immunoglobulin G and complement C3"
same,survival of recipients,[6]; 7 days,29.3 ± 13.8 days
same,survival of recipients,[6]; 14 days,38.8 ± 11.5 days
same,graft vascular disease,[7]; day 50,had no graft vascular disease
same,antibodies directed against BN grafts in sera,[7],contained no antibodies directed against the BN grafts
same,intimal thickening,[8],reduced intimal thickening compared to untreated controls
same,skin graft survival time vs untreated,skin grafts; 2.5 to 20 mg/kg by gavage for 10 days,more than doubled graft survival time compared to untreated animals
same,"skin graft survival, delayed treatment",skin grafts; started five to ten days after grafting,achieved prolongation of skin graft survival
same,conversion after administration,[9],rapidly convened to its active open-ring form
same,intimal thickening,[10],significantly reduced intimal thickening in balloon-injured carotids
same,inhibition of production of IL-2,IL-2,only partially inhibits the production of IL-2
same,graft survival vs controls,cardiac allograft; 0.63 to 10 mg/kg/day for 7 days,significantly prolonged graft survival compared to controls
same,animals with indefinite graft survival (>100 days),"cardiac allograft; 21 days, leflunomide 5 mg/kg/day",three of six animals
same,toxicity,"[11]; animal studies, extremely high doses",liver and cardiac toxicity
same,tolerability,[11]; animals and man,well tolerated in animals and man
